Target: PIK3CD (Human) (UniProt O00329)
Assay: Assessment of PIK3CD Kinase Activity

Chain of PIK3CD (Human) (O00329 whole entry, looked up): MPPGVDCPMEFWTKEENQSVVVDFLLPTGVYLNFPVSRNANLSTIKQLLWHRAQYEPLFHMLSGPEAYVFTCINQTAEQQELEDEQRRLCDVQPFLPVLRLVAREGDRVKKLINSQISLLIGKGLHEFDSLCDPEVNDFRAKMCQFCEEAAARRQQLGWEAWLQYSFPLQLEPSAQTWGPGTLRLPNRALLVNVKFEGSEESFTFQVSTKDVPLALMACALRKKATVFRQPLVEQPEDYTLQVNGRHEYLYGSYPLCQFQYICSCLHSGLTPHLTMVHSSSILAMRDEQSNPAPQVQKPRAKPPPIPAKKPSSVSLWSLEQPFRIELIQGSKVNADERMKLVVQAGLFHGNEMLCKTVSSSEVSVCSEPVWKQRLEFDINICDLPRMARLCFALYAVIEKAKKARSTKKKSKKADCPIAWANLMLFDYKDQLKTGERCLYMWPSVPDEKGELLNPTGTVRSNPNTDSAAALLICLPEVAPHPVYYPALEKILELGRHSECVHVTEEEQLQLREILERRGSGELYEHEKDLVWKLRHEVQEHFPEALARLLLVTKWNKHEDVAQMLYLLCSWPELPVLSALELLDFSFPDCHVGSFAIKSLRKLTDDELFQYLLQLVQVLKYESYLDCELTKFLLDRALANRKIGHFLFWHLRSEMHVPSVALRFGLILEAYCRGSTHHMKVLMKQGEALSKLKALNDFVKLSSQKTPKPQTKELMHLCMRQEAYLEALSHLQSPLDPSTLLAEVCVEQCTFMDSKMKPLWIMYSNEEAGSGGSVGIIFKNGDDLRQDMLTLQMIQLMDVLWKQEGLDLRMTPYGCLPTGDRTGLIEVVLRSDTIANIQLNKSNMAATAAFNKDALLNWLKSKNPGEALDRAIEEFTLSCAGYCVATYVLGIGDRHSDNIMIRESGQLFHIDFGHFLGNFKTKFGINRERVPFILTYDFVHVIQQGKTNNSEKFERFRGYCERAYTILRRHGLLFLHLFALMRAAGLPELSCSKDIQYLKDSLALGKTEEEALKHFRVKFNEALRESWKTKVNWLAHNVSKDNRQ

Row | SMILES | IC50
1 | FC(F)(F)CN1CCN(Cc2cc3nc(-c4cccc5[nH]ncc45)nc(N4CCOCC4)c3s2)CC1 | ≤ 100 nM
2 | CC(C)(C(N)=O)N1CCN(Cc2cc3nc(-c4cccc5[nH]ncc45)nc(N4CCOCC4)c3s2)CC1 | ≤ 100 nM
3 | Cc1cc(CN2CCN(Cc3cc4nc(-c5cccc6[nH]ncc56)nc(N5CCOCC5)c4s3)CC2)no1 | ≤ 100 nM
4 | COCCN(CC1CC1)C1CCN(Cc2cc3nc(-c4cccc5[nH]ncc45)nc(N4CCOCC4)c3s2)CC1 | ≤ 100 nM
5 | CN(C1CCN(Cc2cc3nc(-c4cccc5[nH]ncc45)nc(N4CCOCC4)c3s2)CC1)S(C)(=O)=O | ≤ 100 nM
6 | CN1CCN(Cc2cc3nc(-c4cc(F)cc5[nH]ncc45)nc(N4CCOCC4)c3s2)CC1 | ≤ 100 nM
7 | COCCN(C)CC1CCN(Cc2cc3nc(-c4cccc5[nH]ncc45)nc(N4CCOCC4)c3s2)CC1 | ≤ 100 nM
8 | CS(=O)(=O)C1CCN(Cc2cc3nc(-c4cccc5[nH]ncc45)nc(N4CCOCC4)c3s2)CC1 | ≤ 100 nM
9 | CN(C)C(=O)CN1CCN(Cc2cc3nc(-c4cccc5[nH]ccc45)nc(N4CCOCC4)c3s2)CC1 | ≤ 100 nM
10 | COCC1CN(Cc2cc3nc(-c4cccc5[nH]ncc45)nc(N4CCOCC4)c3s2)CCN1S(C)(=O)=O (centres undefined) | ≤ 100 nM
11 | c1cc(-c2nc(N3CCOCC3)c3sc(CN4CCC(N5CCOCC5)CC4)cc3n2)c2cn[nH]c2c1 | ≤ 100 nM
12 | COCCCN(C)C1CCN(Cc2cc3nc(-c4cccc5[nH]ncc45)nc(N4CCOCC4)c3s2)CC1 | ≤ 100 nM
13 | CN(C)C(=O)N1CCN(Cc2cc3nc(-c4cccc5[nH]ncc45)nc(N4CCOCC4)c3s2)CC1 | ≤ 100 nM
14 | c1ccc(CN2CCN(Cc3cc4nc(-c5cccc6[nH]ncc56)nc(N5CCOCC5)c4s3)CC2)nc1 | ≤ 100 nM
15 | CN1CCN(Cc2cc3nc(-c4cccc5[nH]ccc45)nc(N4CCOCC4)c3s2)CC1 | ≤ 100 nM
16 | CNC(=O)[C@H]1CCCN(Cc2cc3nc(-c4cccc5[nH]ncc45)nc(N4CCOCC4)c3s2)C1 | ≤ 100 nM
17 | OC(COc1ccccc1)CN1CCN(Cc2cc3nc(-c4cccc5[nH]ncc45)nc(N4CCOCC4)c3s2)CC1 (centres undefined) | ≤ 100 nM
18 | COCCN1CCN(Cc2cc3nc(-c4cccc5[nH]ncc45)nc(N4CCOCC4)c3s2)CC1 | ≤ 100 nM
19 | CC(C)(O)C1CCN(Cc2cc3nc(-c4cccc5[nH]ncc45)nc(N4CCOCC4)c3s2)CC1 | ≤ 100 nM
20 | Cc1ccc(CN2CCN(Cc3cc4nc(-c5cccc6[nH]ncc56)nc(N5CCOCC5)c4s3)CC2)o1 | ≤ 100 nM
21 | CC(C)(CO)N1CCN(Cc2cc3nc(-c4cccc5[nH]ncc45)nc(N4CCOCC4)c3s2)CC1 | ≤ 100 nM
22 | c1ccc(CC2CCN(Cc3cc4nc(-c5cccc6[nH]ncc56)nc(N5CCOCC5)c4s3)CC2)nc1 | ≤ 100 nM

Row | SMILES | IC50
23 | OCCC1CCN(Cc2cc3nc(-c4cccc5[nH]ncc45)nc(N4CCOCC4)c3s2)CC1 | ≤ 100 nM
24 | c1cc(-c2nc(N3CCOCC3)c3sc(CN4CCOCC4)cc3n2)c2cn[nH]c2c1 | ≤ 100 nM
25 | CNC(=O)C(C)(C)N1CCN(Cc2cc3nc(-c4cccc5[nH]ncc45)nc(N4CCOCC4)c3s2)CC1 | ≤ 100 nM
26 | OC1(Cc2ccccn2)CCN(Cc2cc3nc(-c4cccc5[nH]ncc45)nc(N4CCOCC4)c3s2)CC1 | ≤ 100 nM
27 | CN(C)C1CCN(Cc2cc3nc(-c4cccc5[nH]ccc45)nc(N4CCOCC4)c3s2)CC1 | ≤ 100 nM
28 | c1cc(-c2nc(N3CCOCC3)c3sc(CN4CCN(CC5CC5)CC4)cc3n2)c2cn[nH]c2c1 | ≤ 100 nM
29 | COCC(C)(C)N1CCN(Cc2cc3nc(-c4cccc5[nH]ncc45)nc(N4CCOCC4)c3s2)CC1 | ≤ 100 nM
30 | c1cc(-c2nc(N3CCOCC3)c3sc(CN4CCC(Cn5ccnc5)CC4)cc3n2)c2cn[nH]c2c1 | ≤ 100 nM
31 | c1cnc(N2CCN(Cc3cc4nc(-c5cccc6[nH]ncc56)nc(N5CCOCC5)c4s3)CC2)nc1 | ≤ 100 nM
32 | COCCN(C)C(=O)N1CCN(Cc2cc3nc(-c4cccc5[nH]ncc45)nc(N4CCOCC4)c3s2)CC1 | ≤ 100 nM
33 | CN(C)CCCS(=O)(=O)N1CCN(Cc2cc3nc(-c4cccc5[nH]ncc45)nc(N4CCOCC4)c3s2)CC1 | ≤ 100 nM
34 | COCC1CCCN(Cc2cc3nc(-c4cccc5[nH]ncc45)nc(N4CCOCC4)c3s2)C1 (centres undefined) | ≤ 100 nM
35 | CN1CCN(Cc2cc3nc(-c4cccc5[nH]ncc45)nc(N4CCOCC4)c3s2)CC1 | ≤ 100 nM
36 | CC(C)(O)CN1CCN(Cc2cc3nc(-c4cccc5[nH]ncc45)nc(N4CCOCC4)c3s2)CC1 | ≤ 100 nM
37 | CCC(CC)(COC)N1CCN(Cc2cc3nc(-c4cccc5[nH]ncc45)nc(N4CCOCC4)c3s2)CC1 | ≤ 100 nM
38 | [O-][n+]1cccc(CN2CCN(Cc3cc4nc(-c5cccc6[nH]ncc56)nc(N5CCOCC5)c4s3)CC2)c1 | ≤ 100 nM
39 | c1cc(-c2nc(N3CCOCC3)c3sc(CN4CCN(c5nccs5)CC4)cc3n2)c2cn[nH]c2c1 | ≤ 100 nM
40 | COCCN(C)C(=O)C1CCN(Cc2cc3nc(-c4cccc5[nH]ncc45)nc(N4CCOCC4)c3s2)CC1 | ≤ 100 nM
41 | O=S(=O)(CCCN1CCOCC1)N1CCN(Cc2cc3nc(-c4cccc5[nH]ncc45)nc(N4CCOCC4)c3s2)CC1 | ≤ 100 nM
42 | c1cc(-c2nc(N3CCOCC3)c3sc(CN4CCN(Cc5cnc[nH]5)CC4)cc3n2)c2cn[nH]c2c1 | ≤ 100 nM
43 | COCCN1[C@H](C)CN(Cc2cc3nc(-c4cccc5[nH]ncc45)nc(N4CCOCC4)c3s2)C[C@@H]1C | ≤ 100 nM
44 | COCCN(C)C(=O)N1CCN(Cc2cc3nc(-c4cccc5[nH]ccc45)nc(N4CCOCC4)c3s2)CC1 | ≤ 100 nM

Row | SMILES | IC50
45 | C[C@@H]1CN(Cc2cc3nc(-c4cccc5[nH]ncc45)nc(N4CCOCC4)c3s2)C[C@H](C)N1Cc1ccccn1 | ≤ 100 nM
46 | Cc1csc(CN2CCN(Cc3cc4nc(-c5cccc6[nH]ncc56)nc(N5CCOCC5)c4s3)CC2)n1 | ≤ 100 nM
47 | COCCN(C(C)C)C1CCN(Cc2cc3nc(-c4cccc5[nH]ncc45)nc(N4CCOCC4)c3s2)CC1 | ≤ 100 nM
48 | O=C(N1CCOCC1)N1CCN(Cc2cc3nc(-c4cccc5[nH]ncc45)nc(N4CCOCC4)c3s2)CC1 | ≤ 100 nM
49 | CN1CCN(Cc2cc3nc(-c4cccc5nn(C)cc45)nc(N4CCOCC4)c3s2)CC1 | ≤ 100 nM
50 | c1cc(-c2nc(N3CCOCC3)c3sc(CN4CCN(Cc5cscn5)CC4)cc3n2)c2cn[nH]c2c1 | ≤ 100 nM
51 | O=C1CN(Cc2cc3nc(-c4cccc5[nH]ncc45)nc(N4CCOCC4)c3s2)CCN1CCO | ≤ 100 nM
52 | O=C(N1CCOCC1)N1CCN(Cc2cc3nc(-c4cccc5[nH]ccc45)nc(N4CCOCC4)c3s2)CC1 | ≤ 100 nM
53 | COCCC1CCN(Cc2cc3nc(-c4cccc5[nH]ncc45)nc(N4CCOCC4)c3s2)CC1 | ≤ 100 nM
54 | COCCN(Cc1nccs1)C1CCN(Cc2cc3nc(-c4cccc5[nH]ncc45)nc(N4CCOCC4)c3s2)CC1 | ≤ 100 nM
55 | c1cncc(CN2CCN(Cc3cc4nc(-c5cccc6[nH]ncc56)nc(N5CCOCC5)c4s3)CC2)c1 | ≤ 100 nM
56 | COCCN(C)C1CCN(Cc2cc3nc(-c4cccc5[nH]ccc45)nc(N4CCOCC4)c3s2)CC1 | ≤ 100 nM
57 | Cn1ccnc1CN1CCN(Cc2cc3nc(-c4cccc5[nH]ncc45)nc(N4CCOCC4)c3s2)CC1 | ≤ 100 nM
58 | c1ccc(NC2CCN(Cc3cc4nc(-c5cccc6[nH]ncc56)nc(N5CCOCC5)c4s3)CC2)nc1 | ≤ 100 nM
59 | CNC(=O)C1CCN(Cc2cc3nc(-c4cccc5[nH]ncc45)nc(N4CCOCC4)c3s2)CC1 | ≤ 100 nM
60 | COCC(=O)N(C)C1CCN(Cc2cc3nc(-c4cccc5[nH]ncc45)nc(N4CCOCC4)c3s2)CC1 | ≤ 100 nM
61 | COCCN(C1CCN(Cc2cc3nc(-c4cccc5[nH]ncc45)nc(N4CCOCC4)c3s2)CC1)S(C)(=O)=O | ≤ 100 nM
62 | [O-][n+]1ccccc1CN1CCN(Cc2cc3nc(-c4cccc5[nH]ncc45)nc(N4CCOCC4)c3s2)CC1 | ≤ 100 nM
63 | c1cc(-c2nc(N3CCOCC3)c3sc(CN4CCN(Cc5nccs5)CC4)cc3n2)c2cn[nH]c2c1 | ≤ 100 nM
64 | CN(C)S(=O)(=O)N1CCN(Cc2cc3nc(-c4cccc5[nH]ncc45)nc(N4CCOCC4)c3s2)CC1 | ≤ 100 nM

Reference: the Kinase Knowledgebase extract (Sharma et al. 2016)
